“Also recorded” adds a separate entry of the source. Blank lines part the entries; values can stand above or below the molecule they belong to.
Columns and labels:
[1] = system: TCR(SU3–3)-TG40 and TCR(NM-4)-TG40 cells; test: IL-2 production assay with HLA-DP5-expressing mDC1 cells; settings: ELISA
[2] = system: CD4^+ T-cell clones (SU3–2, SU3–3, NM-4, and NM-7); test: Cytokine production by T-cell clones; type: cell-based, human; settings: HLA-DP5-transfected K562 cells as APCs, 24 h, Bio-Plex
Procedure: (§1) Cloning of CD4^+ T cells was performed as described previously ([23]). A single, viable (7AAD^–), CD4^+, CFSE^dim cell was sorted into each well of a 96-well plate, which contained 100 μl of culture medium with feeder cells and cytokines, as described below. Irradiated (30 Gy) peptide-pulsed PBMCs (1.0 × 10^5) isolated from unrelated DPB1*05:01^+ donors were used as feeder cells in the cloning plates. Pooled human serum (5%) and IL-2 (100 U ml^−1) (Peprotech) were added at the indicated final concentrations to AIM-V medium (Life Technologies). Cells were fed every 7 days with fresh cytokine and peptide-pulsed PBMCs. Growing clones were identified by visual inspection, expanded into […] plates, and then tested for antigen specificity by ^3H-thymidine incorporation and cytokine production assays, using HLA-DP5 transfected K562 cells as antigen-presenting cells (APCs). […]
Fig. 4. […] HLA-restriction of T-cell clones was determined by addingvarious monoclonal antibodies (mAbs): anti-HLA-DR mAb (L243, BioLegend), anti-HLA-DQ mAb (SPV-L3, Abcam) or anti-HLA-DP mAb (B7/21, Abcam), at a final concentration of 10 μg ml^−1. […] After 24 h, culture supernatants were collected and cytokine levels were measured using the Bio-Plex system (Bio-Rad). […] The T-cell surface activation marker CD137 of TCR(SU3–3)-TG40 and TCR(NM-4)-TG40 (GFP^+ 7AAD^− gated) was analyzed by flow cytometry. […]

[3] = system: CD4^+ T-cell clones (SU3–2, SU3–3, NM-4, and NM-7); test: ^3H-thymidine incorporation assay of T-cell clone proliferation; type: cell-based, human; settings: HLA-DP5-positive allogenic irradiated PBMCs as APCs
Procedure: as §1
T-cell clones were tested for antigen specificity, using the ^3H-thymidine incorporation assay. […] The cells were then harvested and the incorporated radioactivity was measured by β-scintillation counting. […]
(§2) Fig. 4. […] HLA-restriction of T-cell clones was determined by addingvarious monoclonal antibodies (mAbs): anti-HLA-DR mAb (L243, BioLegend), anti-HLA-DQ mAb (SPV-L3, Abcam) or anti-HLA-DP mAb (B7/21, Abcam), at a final concentration of 10 μg ml^−1. […]

[4] = system: TCR(SU3–2)-TG40, TCR(SU3–3)-TG40, TCR(NM-4)-TG40, and TCR(NM-7)-TG40 cells; test: CD137^+ response of TCR-transfected TG40 cells; type: cell-based, mouse; settings: in the presence of HLA-DP5-expressing cells
Procedure: as §1, with “(APCs). HLA-DP5-K562 cells were kindly provided by Dr H. Sugiyama, Osaka University. CD4^+ T-cell clones were stained with a PE-conjugated anti-human CD4 monoclonal antibody (mAb), and single cells were sorted into MicroAmp reaction tubes.” for “(APCs).”
as §2

CD4^+ T cells = test: CFSE assay of CD4^+ T-cell proliferation in PBMCs of HLA-DP5^+ CP patients; type: cell-based, human; settings: PBMCs from HLA-DP5^+ CP patients
Procedure: Peripheral blood was obtained from HLA-DP5^+ CP patients. Peripheral blood mononuclear cells (PBMCs) were isolated by a density gradient technique, using Ficoll-Paque PLUS. The research protocol for collecting and using PBMCs from allergic patients was approved by the Institutional Review Board of Kyushu University.
The CFSE assay was performed as described previously ([24]). Briefly, PBMCs (1.0 × 10^7 cells ml^−1 in PBS) were incubated for 10 min with 5 μM CFSE (Molecular Probes). Staining was terminated by adding PBS containing 5% pooled human serum, and after the cells were washed three times in PBS containing 1% pooled human serum, they were resuspended in culture medium (RPMI-1640 containing 5% pooled human serum) at 2.0 × 10^6 cells ml^−1. Stained cells (2.0 × 10^6 cells well^−1, 1 ml) were cultured in 24-well plates with medium alone, pCj1 (final concentration, 10 μg ml^−1), or NF-pCj1 (10 μg ml^−1). After 7 days, the cells treated with each antigen were pooled, washed in PBS, and stained with anti-human CD4-allophycocyanin (IgG1, clone RPA-T4, BioLegend) and 7-amino-actinomycin D (7-AAD) (BD Pharmingen). Antigen-specific, viable CD4^+ T cells were identified as 7AAD^−, CD4^+, CFSE^dim cells, and the proliferation levels of these antigen-specific CD4^+ T cells were examined in each experiment.

[5] = system: mDC1 cells (mouse antigen-presenting dendritic cell line 1); test: Uptake of TAMRA-labeled NF-pCj1 into mDC1 cells; settings: TAMRA MFI, 0.25–4 μM, 3.5 h at 37°C, flow cytometry
[6] = system: HLA-DP5 expressed on mDC1 cells; test: Cell-surface peptide-display assay on HLA-DP5-expressing mDC1 cells; settings: 3.5 h at 37°C
[7] = target: pCj1–HLA-DP5^ec (extracellular regions of HLA-DP5 with the nine-residue core peptide pCj1 fused to the β chain) (human | Cryptomeria japonica) (UniProt P18632); test: SPR
[8] = target: NF-pCj1–HLA-DP5^ec (HLA-DP5α protein and NF-pCj1–HLA-DP5β fusion protein, extracellular regions) (human | Cryptomeria japonica) (UniProt P18632); test: SPR
[9] = target: T1, Cry j 1 (NF-pCj1, NF[WT]-pCj1) peptide on HLA-DPA1*02:02 / HLA-DPB1*05:01 (human); test: Kd or kinetics
T1 peptide: DKSMKVTVAFNQF

[10] = target: T1, Cry j 1 (NF-pCj1, NF[WT]-pCj1) peptide …; test: cytokine release
[11] = target: T2, Cry j 1 (pCj1) peptide on HLA-DPA1*02:02 / HLA-DPB1*05:01 (human); test: activation reporter or marker
T2 peptide: KVTVAFNQF

[12] = target: T2, Cry j 1 (pCj1) peptide on …; test: cytokine release

Molecule: NF[S(P–2)E/K(P–3)E]-pCj1: double mutation of Ser(–2) and Lys(–3) to Glu in a 13-residue Cry j 1 peptide (NF-pCj1) (DEEMKVTVAFNQF)
effect of NF mutation on T-cell activation / IL-2 production (in words) ([1]; vs WT NF-pCj1, HLA-DP5-mDC1s, 18 h): dramatically reduced

Molecule: DKSMKVTVAFNQF [NF-pCj1]
cytokine production on stimulation (in words) [2]: produced IL-5, IL-10, and IL-13 | proliferative response of T-cell clones (in words) [3]: proliferated in response to NF-pCj1 | response of TCR-transfected TG40 cells by CD137^+ cell number (in words) [4]: responded to NF-pCj1 | CD4^+ T-cell proliferation and clone establishment (in words) (CD4^+ T cells): many CD4^+ T cells proliferating | IL-2 production by TCR-TG40 cells (in words) ([1]; HLA-DP5-expressing mDC1s pulsed 3 h, coculture 18 h, peptide 7 µg ml^−1 (Fig. 5A), 0.5–15 µg ml^−1 (Fig. 5B, C)): produced IL-2 in response to NF-pCj1

Molecule: DKSMKVTVAFNQF-GPN-EG2-TAMRA [NF-pCj1–TAMRA]
uptake versus concentration in the medium (in words) [5]: proportional to its concentration in the medium | amount of surface-displayed peptide per cell versus concentration (in words) ([6]; Alexa 647-labeled anti-TAMRA antibody MFI, 0.25–4 μM): nearly proportional to the peptide concentration in the range of 0.25–4 μM

Kd [7]: 90.1 µM | Kd [8]: 92.5 µM
Molecule: TCR(SU3–3)^ec αβ molecule (extracellular regions of the TCR(SU3–3) α chain, residues 1–209, and β chain, residues 1–245, with an artificial interchain disulfide bond) (from UniProt A0A0A6YYJ7)

Molecule: DEEMKVTVAFNQF-GPN-EG2-TAMRA
effect of NF mutations on amount of cell-surface displayed peptide (in words) ([6]; 1 μM, same peptide dose and HLA-DP5 surface expression, Alexa647 MFI): halved the amounts of the cell-surface displayed peptide

Molecule: KVTVAFNQF [pCj1]
CD4^+ T-cell proliferation and clone establishment (in words) (CD4^+ T cells): some proliferation; also recorded: it was impossible to maintain the cell growth required to establish HLA-DP5-restricted CD4^+ T-cell clones

binding result [9]: recognises
B1: TCR(SU3–3) (TCR)
alpha TRAV8-3*01 TRAJ34*01 CDR3: CAVAPTYNTDKLIF
beta TRBV7-9*03 TRBJ2-2*01 CDR3: CASSSKGGAGELFF

binding result [10]: recognises | binding result [11]: no recognition
B2: TCR(NM-7) (TCR)
alpha TRAV12-3*01 TRAJ27*01 CDR3: CGANAGKSTF
beta TRBV30*01 TRBJ2-7*01 CDR3: CAWSVMVWGSEGEQYF

binding result [12]: no recognition | binding result [10]: recognises
B3: TCR(NM-4) (TCR)
alpha TRAV16*01 TRAJ48*01 CDR3: CALRSNFGNEKLTF
beta TRBV5-1*01 TRBJ2-2*01 CDR3: CASSLVVAGVYTGELFF

From article PMC10478803, “Contributions of the N-terminal flanking residues of an antigenic peptide from the Japanese cedar pollen allergen Cry j 1 to the T-cell activation by HLA-DP5” (International Immunology, 2023)
